PMC5923142, “Selection and Characterization of Rupintrivir-Resistant Norwalk Virus Replicon Cells In Vitro” (Antimicrobial Agents and Chemotherapy, 2018)
“Also recorded” adds a separate entry of the source.

How the values were obtained:
[1] = test system: GII mutant proteases; test: Cell-based FRET assay, GII mutant proteases (A105V, I109V, A105V/I109V); set-up: species or system norovirus GII.4 (DQ658413); settings: A105V/I109V vs GII WT, HEK293T cells
Excerpt: (§1) The generation of plasmids expressing norovirus protease from GI.1 (M87661), GII.4 (DQ658413), or GV (DQ285629) norovirus and FRET assay constructs has been described previously ([18]). The plasmids carrying GI, GII, and GV proteases with the A105V, I109V, or A105V/I109V mutation were generated from the wild-type (WT) protease constructs described above by the QuikChange site-directed mutagenesis method. Mutant MNV genomes for reverse genetics were generated by two-step PCR mutagenesis of the WT MNV genome (pT7 MNV 3RZ) construct as described previously ([27]). The primers used for generation of the plasmids are listed in Tables S1 and S2 in the supplemental material.
(§2) The YFP/CFP ratio was used to determine FRET efficiency, as described previously ([18], [40]). Briefly, HEK293T cells were plated into black 96-well cell culture microplates (Greiner Bio-One) at a density of 5 × 10^4 cells/well in 100 μl of DMEM containing 10% fetal bovine serum with or without various concentrations of rupintrivir and then incubated for 4 h in a CO2 incubator at 37°C. […] The plates were then analyzed on a SpectraMax i3 instrument in fluorescence mode, with excitation set at 434 nm and the reading emissions set at 477 nm (CFP) and 527 nm (YFP). The background fluorescence from wells transfected with pcDNA3.1 was determined and subtracted. […]

[2] = biological target: T1, GV A105V/I109V mutant protease (Norovirus, UniProt Q80J95, A1099V/I1103V); test: Cell-based FRET assay, GV A105V/I109V protease; set-up: species or system murine norovirus (MNV) GV (DQ285629)
T1 construct: plasmids expressing norovirus protease from GI.1 (M87661), GII.4 (DQ658413), or GV (DQ285629) norovirus; expressed in transfected cells; host or cells: HEK293T
T1 sequence (Q80J95 995-1177 A1099V/I1103V): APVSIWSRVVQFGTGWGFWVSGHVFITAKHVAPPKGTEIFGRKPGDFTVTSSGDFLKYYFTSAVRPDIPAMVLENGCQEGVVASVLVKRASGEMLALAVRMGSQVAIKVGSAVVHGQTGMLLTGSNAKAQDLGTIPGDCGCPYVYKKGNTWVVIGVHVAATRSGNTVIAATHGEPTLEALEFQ
Excerpt: as §1, §2

[3] = biological target: T2, MNV A105V/I109V protease (polyprotein) (Norovirus, UniProt Q80J95, A1099V/I1103V); test: In vitro translation, MNV polyprotein processing, A105V/I109V protease; assay type: biochemical, murine norovirus; settings: 80 μM, rabbit reticulocyte lysate
T2 construct: in vitro-transcribed MNV full-length capped RNA containing either the WT or mutant proteases; made in house; host or cells: rabbit reticulocyte lysate (Flexi system, Promega), in vitro translation
Experimental: FIG 4 Impact of rupintrivir resistance-conferring mutations on MNV polyprotein processing in vitro. In vitro translation reactions were programmed with equal quantities of in vitro-transcribed MNV full-length capped RNA containing either the WT or mutant proteases in the presence and absence of 80 μM rupintrivir. The [^35S]methionine-labeled products were subsequently analyzed by SDS-PAGE and phosphorimaging analysis. The percentage of fully processed NS3, determined on the basis of the expected molecular mass of the proteins, was calculated and expressed relative to the total amount of viral protein produced.
In vitro translation reactions were performed using a Flexi rabbit reticulocyte lysate system (Promega). The reaction mixtures were prepared according to the manufacturer's instructions as described for capped mRNAs and programmed with 1 μg of RNA per 25-μl reaction mixture. The reaction mixtures were incubated at 30°C for 90 min prior to the addition of an equal volume of SDS-PAGE sample buffer. Samples were subsequently resolved on a 12.5% SDS-polyacrylamide gel before exposure to a phosphorimager screen.

CCOC(=O)/C=C/[C@H](C[C@@H]1CCNC1=O)NC(=O)[C@@H](CC(=O)[C@@H](NC(=O)c1cc(C)on1)C(C)C)Cc1ccc(F)cc1 [rupintrivir, Rupintrivir]
effect of substitutions on the IC50 [1]: no measurable effect; also recorded: no significant differences
IC50 ([2]; HEK293T cells, GV NS1/2-NS3 FRET substrate): 2300 ± 300 nM
fold increase in IC50 ([2]; vs GV WT protease): 2.3 fold
polyprotein processing (mature NS3) [3]: still able to produce mature NS3
